We go through three compounds from ChEMBL document CHEMBL3244265, “Preparation and biological actions of some symmetrically N,N-disubstituted dopamines” (J Med Chem, 1978).

Data set [1] deals with Felis catus. In words: Inhibition of 2 Hz electric current-induced cardioaccelerator nerve stimulation in iv dosed cat by cardiotachometer analysis. The class given is functional.
Data set [2] relates to Felis catus. In words: Inhibition of 2 Hz electric current-induced cardioaccelerator nerve stimulation in iv dosed cat by cardiotachometer analysis in presence of 0.2 mg/kg, iv haloperidol. Type of data set: functional, organism-based. Also on record: dose 0.2 mg/kg. The note with it: at 0.2 mg/kg.
The test system of data set [3] is Canis familiaris. Kind of data set: Induction of emesis in sc dosed dog. The conditions noted are these: Canis lupus familiaris. The class given is functional.
Data set [4] concerns Columba livia. In words: Induction of pecking in pigeon at 1.62 umol/kg, im. Type of data set: functional, organism-based.
The species entered for data set [5] is Felis catus. In words: Agonist activity at dopamine receptor in cat right atrium assessed as inhibition of cardiaccelerator nerve stimulation rate by cardiotachometer analysis. The class given is tissue-based. The conditions noted are these: Cardiac atrium.
Data set [6] has as its system Rattus norvegicus. In words: Induction of stereotyped behaviour in sc dosed Sprague-Dawley rat. The class given is functional, organism-based.
Data set [7] has as its system Rattus norvegicus. In words: Induction of stereotyped behaviour in sc dosed Sprague-Dawley rat assessed as onset of action. The class given is functional.
The test system of data set [8] is Rattus norvegicus. In words: Induction of stereotyped behaviour in sc dosed Sprague-Dawley rat assessed as duration of action. Type of data set: functional.
Data set [9] concerns Rattus norvegicus. In words: Induction of circling behaviour in sc dosed Sprague-Dawley rat assessed as reversal of spontaneous ipsilateral to contralateral circling response. Type of data set: functional, organism-based.
Data set [10] concerns Rattus norvegicus. Kind of data set: Induction of circling behaviour in sc dosed Sprague-Dawley rat assessed as onset of action. The class given is functional.
For data set [11], the system named is Rattus norvegicus. Kind of data set: Induction of circling behaviour in sc dosed Sprague-Dawley rat assessed as duration of action. The class given is functional.
Data set [12] concerns Rattus norvegicus. In words: Induction of circling behaviour in sc dosed Sprague-Dawley rat in presence of 0.8 mg/kg haloperidol. The class given is functional, organism-based. On the set-up: dose 0.8 mg/kg.
Data set [13] concerns Rattus norvegicus. Kind of data set: Induction of circling behaviour in sc dosed Sprague-Dawley rat in presence of 5 mg/kg aceperone. Type of data set: functional, organism-based. Also on record: dose 5 mg/kg.
In data set [14] the test system is Rattus norvegicus. In words: Induction of circling behaviour in sc dosed Sprague-Dawley rat in presence of 5 mg/kg propranolol. Type of data set: functional, organism-based. On the set-up: dose 5 mg/kg.
In data set [15] the test system is Felis catus. In words: Inhibition of 2 Hz electric current-induced cardioaccelerator nerve stimulation in cat at 10 umol/kg, iv by cardiotachometer analysis. The class given is functional, organism-based.
In data set [16] the test system is Felis catus. Kind of data set: Inhibition of 10 Hz electric current-induced cardioaccelerator nerve stimulation in iv dosed cat by cardiotachometer analysis. Type of data set: functional, organism-based.
Data set [17] relates to Felis catus. In words: Hypotensive activity in iv dosed cat. Type of data set: functional, organism-based.
Data set [18] concerns Rattus norvegicus. Kind of data set: Induction of hyperactivity in Sprague-Dawley rat at 2.5 to 20 mg/kg, sc. The class given is functional, organism-based.
The species entered for data set [19] is Felis catus. In words: Agonist activity at dopamine receptor in cat right atrium assessed as inhibition of cardiaccelerator nerve stimulation rate at 10 umol/L by cardiotachometer analysis. Type of data set: tissue-based. The note with it: Cardiac atrium.
For data set [20], the system named is Columba livia. In words: Induction of pecking in im dosed pigeon. The class given is functional, organism-based.
Data set [21] deals with Felis catus. Kind of data set: Effect on heart rate in iv dosed cat. The class given is functional, organism-based.
For data set [22], the system named is Rattus norvegicus. Kind of data set: Induction of stereotyped behaviour in Sprague-Dawley rat at 2.5 to 20 mg/kg, sc. Type of data set: functional, organism-based.
In data set [23] the test system is Rattus norvegicus. In words: Induction of circling behaviour in Sprague-Dawley rat at 2.5 to 20 mg/kg, sc. Type of data set: functional, organism-based.
In data set [24] the test system is Rattus norvegicus. Kind of data set: Induction of hyperactivity in Sprague-Dawley rat at 3.13 to 50 ug administered into caudate putamen. Type of data set: functional, organism-based.
For data set [25], the system named is Rattus norvegicus. Kind of data set: Induction of stereotyped behaviour in intrastriatally dosed Sprague-Dawley rat at 3.13 to 50 ug administered into caudate putamen. Type of data set: functional, organism-based.
Data set [26] deals with Rattus norvegicus. Kind of data set: Induction of hyperactivity in Sprague-Dawley rat at 3.13 to 50 ug administered into nucleus accumbens. The class given is functional, organism-based.
In data set [27] the test system is Rattus norvegicus. Kind of data set: Induction of stereotyped behaviour in intrastriatally dosed Sprague-Dawley rat at 3.13 to 50 ug administered into nucleus accumbens. Type of data set: functional, organism-based.
The test system of data set [28] is Felis catus. Kind of data set: Inhibition of 2 Hz electric current-induced cardioaccelerator nerve stimulation in iv dosed cat by cardiotachometer analysis in presence of 2 mg/kg, iv phentolamine. Also on record: dose 2 mg/kg. The class given is functional, organism-based. The note with it: at 2 mg/kg.
For data set [29], the system named is Felis catus. Kind of data set: Hypotensive activity in iv dosed cat in presence of haloperidol. The class given is functional, organism-based.
Data set [30] deals with Canis familiaris. Kind of data set: Antagonism of apomorphine-induced emesis in sc dosed dog treated 15 mins prior to apomorphine challenge. The conditions noted are these: Canis lupus familiaris. The class given is functional, organism-based.
Data set [31] deals with Rattus norvegicus. In words: Induction of circling behaviour in Sprague-Dawley rat administered into nucleus accumbens in presence of propranolol. The class given is functional, organism-based.
Data set [32] has as its system Canis familiaris. Kind of data set: Toxicity in dog up to 2 mg/kg, sc. The note with it: in vivo. On the set-up: dose 2 mg/kg, route subcutaneous. Type of data set: organism-based, Canis lupus familiaris.
In data set [33] the test system is Columba livia. Kind of data set: Antagonism of apomorphine-induced pecking in im dosed pigeon treated 15 mins prior to apomorphine challenge. The class given is functional.
Data set [34] deals with Rattus norvegicus. In words: Induction of hyperactivity in Sprague-Dawley rat administered into caudate putamen. The class given is functional, organism-based.
The subject of data set [35] is Rattus norvegicus. In words: Induction of stereotyped behaviour in Sprague-Dawley rat administered into caudate putamen. The class given is functional, organism-based.
In data set [36] the test system is Rattus norvegicus. Kind of data set: Induction of hyperactivity in Sprague-Dawley rat administered into nucleus accumbens. Type of data set: functional, organism-based.
In data set [37] the test system is Rattus norvegicus. In words: Induction of stereotyped behaviour in Sprague-Dawley rat administered into nucleus accumbens. The class given is functional, organism-based.
The subject of data set [38] is Rattus norvegicus. Kind of data set: Induction of hyperactivity in Sprague-Dawley rat administered into caudate putamen in presence of 0.2 to 0.8 mg/kg haloperidol. The class given is functional, organism-based.
Data set [39] relates to Rattus norvegicus. In words: Induction of stereotyped behaviour in Sprague-Dawley rat administered into caudate putamen in presence of 0.2 to 0.8 mg/kg haloperidol. The class given is functional, organism-based.
Data set [40] relates to Rattus norvegicus. Kind of data set: Induction of hyperactivity in Sprague-Dawley rat administered into nucleus accumbens in presence of 0.2 to 0.8 mg/kg haloperidol. Type of data set: functional, organism-based.
For data set [41], the system named is Rattus norvegicus. Kind of data set: Induction of stereotyped behaviour in Sprague-Dawley rat administered into nucleus accumbens in presence of 0.2 to 0.8 mg/kg haloperidol. The class given is functional, organism-based.
The test system of data set [42] is Rattus norvegicus. In words: Induction of hyperactivity in Sprague-Dawley rat administered into caudate putamen in presence of 5 mg/kg aceperone. Also on record: dose 5 mg/kg. Type of data set: functional, organism-based.
For data set [43], the system named is Rattus norvegicus. Kind of data set: Induction of stereotyped behaviour in Sprague-Dawley rat administered into caudate putamen in presence of 5 mg/kg aceperone. The class given is functional, organism-based. On the set-up: dose 5 mg/kg.
The test system of data set [44] is Rattus norvegicus. Kind of data set: Induction of hyperactivity in Sprague-Dawley rat administered into nucleus accumbens in presence of 5 mg/kg aceperone. Type of data set: functional, organism-based. Also on record: dose 5 mg/kg.
Data set [45] has as its system Rattus norvegicus. In words: Induction of stereotyped behaviour in Sprague-Dawley rat administered into nucleus accumbens in presence of 5 mg/kg aceperone. The class given is functional, organism-based. On the set-up: dose 5 mg/kg.
In data set [46] the test system is Rattus norvegicus. Kind of data set: Induction of hyperactivity in Sprague-Dawley rat administered into caudate putamen in presence of 5 mg/kg propranolol. Also on record: dose 5 mg/kg. The class given is functional, organism-based.
In data set [47] the test system is Rattus norvegicus. Kind of data set: Induction of stereotyped behaviour in Sprague-Dawley rat administered into caudate putamen in presence of 5 mg/kg propranolol. Also on record: dose 5 mg/kg. The class given is functional, organism-based.
The subject of data set [48] is Rattus norvegicus. Kind of data set: Induction of hyperactivity in Sprague-Dawley rat administered into nucleus accumbens in presence of 5 mg/kg propranolol. Type of data set: functional, organism-based. Also on record: dose 5 mg/kg.
The subject of data set [49] is Rattus norvegicus. Kind of data set: Induction of stereotyped behaviour in Sprague-Dawley rat administered into nucleus accumbens in presence of 5 mg/kg propranolol. The class given is functional, organism-based. On the set-up: dose 5 mg/kg.
The subject of data set [50] is Rattus norvegicus. Kind of data set: Induction of circling behaviour in Sprague-Dawley rat administered into caudate putamen. The class given is functional, organism-based.
For data set [51], the system named is Rattus norvegicus. Kind of data set: Induction of circling behaviour in Sprague-Dawley rat administered into nucleus accumbens. Type of data set: functional, organism-based.
Data set [52] deals with Rattus norvegicus. Kind of data set: Induction of circling behaviour in Sprague-Dawley rat administered into caudate putamen in presence of haloperidol. Type of data set: functional, organism-based.
Data set [53] deals with Rattus norvegicus. In words: Induction of circling behaviour in Sprague-Dawley rat administered into caudate putamen in presence of aceperone. Type of data set: functional, organism-based.
Data set [54] deals with Rattus norvegicus. In words: Induction of circling behaviour in Sprague-Dawley rat administered into caudate putamen in presence of propranolol. Type of data set: functional, organism-based.
The subject of data set [55] is Rattus norvegicus. In words: Induction of circling behaviour in Sprague-Dawley rat administered into nucleus accumbens in presence of haloperidol. The class given is functional, organism-based.
Data set [56] has as its system Rattus norvegicus. In words: Induction of circling behaviour in Sprague-Dawley rat administered into nucleus accumbens in presence of aceperone. Type of data set: functional, organism-based.

Calls of active or inactive are those of the source. The calls are words filed in the database; no cut-off is given here.

On to `CN1CCc2cccc3c2[C@H]1Cc1ccc(O)c(O)c1-3.CN1CCc2cccc3c2[C@H]1Cc1ccc(O)c(O)c1-3.Cl.Cl.O` [APOMORPHINE HYDROCHLORIDE], for which the ED50 in data set [1] is 0.1 µmol/kg; in [3], 0.13 µmol/kg; in data set [5], 43 nM. The inhibition entry in data set [2] was “inactive”. Besides, the outcome in [4], in data set [9], in data set [13] and in data set [14] was Active. Also, the Activity result in data set [6] was “Dose-dependent effect”. Besides, the Time in [7] is on record as less than 5 min; in data set [8], 20 min; in data set [10], 3 min; in [11], 40 min. Also, the outcome in data set [12] was inactive.
For the compound `CCCCN(CCCC)CCc1ccc(O)c(O)c1`, the inhibition entry in data set [15], in [16] and in [19] was “inactive” each time. The outcome in data set [17], in [18], in [20], in data set [21], in data set [22] and in data set [23] was inactive. In addition, the result in data set [24], in [25], in data set [26] and in data set [27] was inactive.
As for `CCN(CC)CCc1ccc(O)c(O)c1`, the ED50 in data set [1] is 0.041 µmol/kg; in [5] it was 340 nM. The inhibition entry in [16], in data set [2] and in [30] was “inactive” each time. The inhibition result in data set [28] was “Active”. Also, the outcome in data set [17], in data set [31], in data set [9], in data set [13], in data set [14] and in data set [34] was Active. Besides, the result in data set [35], in data set [36], in [37], in [42], in data set [43] and in data set [44] was Active. Also, the outcome in data set [45], in data set [46], in [47], in [48], in [49] and in [50] was Active. Besides, the outcome in [51], in data set [53], in data set [54] and in data set [56] was Active. For the same compound, the result in [29], in [18], in [20], in [21], in data set [22] and in [12] was inactive. Moreover, the outcome in data set [38], in [39], in data set [40], in data set [41], in data set [52] and in data set [55] was inactive. The ED50 result in [3] and in data set [33] was “inactive” throughout. Besides, in [32], the Activity result was “Non-toxic”. Also, the figures for the Time in data set [10] and in data set [11] were 3 min and 5 min, respectively.
